From patent US20240174636A1, “NOVEL INDOLEAMINE 2,3-DIOXYGENASE INHIBITORS, PROCESSES FOR THE PREPARATION THEREOF AND PHARMACEUTICAL COMPOSITIONS COMPRISING THE SAME” (YUHAN CORPORATION, priority 2021, published 2024)
Values belong to the compound of their own block, whether it stands above or below them.

How the values were obtained:
IDO1 [1] = molecular target: T1, IDO1 (Homo sapiens, UniProt P14902); assay: IDO1 cellular activity using Hela cells (IFN-gamma induced IDO expression, kynurenine absorbance at 480 nm); assay type: cell-based; settings: IDO induced with interferon gamma 50 ng/ml, 24 h compound incubation, read-out: Inhibitory Activity (IC50)
Description: Hela cells were seeded at a density of 20000 cells/well in 100 μl of a culture medium (EMEM supplemented with 10% FBS, penicillin 100 U/ml, and streptomycin 100 μg/ml) in a tissue culture-treated 96 well plate. The cells were cultured in a 5% carbon dioxide incubator for 24 hours, treated with recombinant human interferon gamma at the concentration of 50 ng/ml, and then cultured for 48 hours in a 5% carbon dioxide incubator to induce IDO expression.
The activities were measured using IDO1 cellular activity-measuring substrate (IDO1 cellular activity quickDetect supplements catalog: #62000-2, BPS Bioscience). Specifically, an assay medium was prepared by diluting IDO1 assay medium substrate 1 and IDO1 assay medium supplement 2 in a culture medium at a ratio of 1:100, respectively. The test compounds were diluted to the predetermined concentrations in the fresh assay medium. After removing the culture medium using a multi-pipet, 200 μl of each assay medium containing the test material was added into the respective well, followed by incubating in a 5% carbon dioxide incubator for 24 hours. The next day, 140 μl of culture medium from each well was transferred to a new 96-well plate. 10 μl of 6.1N trichloroacetic acid was added into each well, which was then cultured in a 50° C. incubator for 30 minutes. The plate was centrifuged at 2500 rpm for 10 minutes to settle any sediment. A detection reagent solution was prepared by diluting the detection reagent (component D kit, catalog: #62000-2, BPS Bioscience) 50-fold in acetic acid. 100 μl of the supernatant taken from the centrifuged plate was transferred to a new transparent 96-well plate and then 100 μl of the detection reagent solution was added thereto. After reacting at room temperature for 10 minutes, absorbance was measured at 480 nm wavelength. For analysis of the results, the absorbance (At) of the well containing Hela cells in which IDO protein expression was induced without treatment of an inhibitor was 100%; and the absorbance (Ab) of the well containing Hela cells in which IDO protein expression was not induced was 0. The % absorbance was calculated according to the following equation: % Absorbance=(A−Ab)/(At−Ab), A=absorbance of the well treated with the test compound.
The results obtained by calculating the 50% inhibitory concentration (C50) of each compound, from the absorbance values obtained as described above, are shown in Table 1 below.

[2] = Pharmacokinetics through oral administration in normal rats; assay type: in vivo; settings: 10 mg/5 mL/kg; for Maximum plasma concentration: suspension in 0.5% methyl cellulose containing 0.2% Tween 80
Description: The pharmacokinetics of the compounds of Examples 2, 5 and 25 and BMS-986205 (control) were measured in rats, respectively. The compounds of Examples 2, 5 and 25 and BMS-986205 (control) were each suspended in 0.5% methyl cellulose containing 0.2% Tween 80 and then orally administered to rats at a dose of 10 mg/5 mL/kg. Blood samples were collected from the rat in predetermined times. The concentration of the compound in each sample was analyzed to obtain the blood concentration profiles (FIG. 1).

IDO1 [3] = molecular target: T1, IDO1; assay: IDO1 cellular activity using HEK293 cells transfected with IDO1 expression vector; assay type: cell-based; parameters: host or cells: HEK293 cells, transient transfection with Lipofectamine 2000; settings: 24 h compound incubation, read-out: Inhibitory Activity (IC50)
Description: HEK293 cells were seeded at a density of 30000 cells/well in 100 μl of a culture medium (DMEM supplemented with 10% FBS, penicillin 100 U/ml, and streptomycin 100 μg/ml) in a tissue culture-treated 96 well plate. The cells were cultured in a 5% carbon dioxide incubator for 24 hours, transfected with the IDO1 expression vector (component A in IDO1 cell-based assay kit, catalog #72031, BPS Bioscience) using Lipofectamine 2000 (Life Technologies, #11668027), and then cultured for 24 hours in a 5% carbon dioxide incubator to express the IDO protein.
The activities were measured using a IDO1 cell-based assay kit (catalog #72031, BPS Bioscience). Specifically, an assay medium was prepared by diluting IDO1 assay medium substrate 1 and IDO1 assay medium supplement 2 in a culture medium at a ratio of 1:100, respectively. The test compounds were diluted to the predetermined concentrations in the fresh assay medium. After removing the culture medium using a multi-pipet, 200 μl of each assay medium containing the test material was added into respective well, followed by incubating in a 5% carbon dioxide incubator for 24 hours. The next day, 140 μl of culture medium from each well was transferred to a new 96-well plate. 10 μl of 6.1N trichloroacetic acid was added into each well, which was then cultured in a 50° C. incubator for 30 minutes. The plate was centrifuged at 2500 rpm for 10 minutes to settle any sediment. A detection reagent solution was prepared by diluting the detection reagent (component D in IDO1 cell-based assay kit, catalog #72031 BPS Bioscience) 50-fold in acetic acid. 100 μl of the supernatant taken from the centrifuged plate was transferred to a new transparent 96-well plate and then 100 μl of the detection reagent solution was added thereto. After reacting at room temperature for 10 minutes, absorbance was measured at 480 nm wavelength. For analysis of the results, the absorbance (At) of the well containing HEK293 cells in which IDO protein was expressed without treatment of an inhibitor was 100%; and the absorbance (Ab) of the well containing HEK293 cells in which IDO protein was not expressed was 0. The % absorbance was calculated according to the following equation: % Absorbance=(A−Ab)/(At−Ab), A=absorbance of the well treated with the test compound.

T1 sequence (P14902 whole entry): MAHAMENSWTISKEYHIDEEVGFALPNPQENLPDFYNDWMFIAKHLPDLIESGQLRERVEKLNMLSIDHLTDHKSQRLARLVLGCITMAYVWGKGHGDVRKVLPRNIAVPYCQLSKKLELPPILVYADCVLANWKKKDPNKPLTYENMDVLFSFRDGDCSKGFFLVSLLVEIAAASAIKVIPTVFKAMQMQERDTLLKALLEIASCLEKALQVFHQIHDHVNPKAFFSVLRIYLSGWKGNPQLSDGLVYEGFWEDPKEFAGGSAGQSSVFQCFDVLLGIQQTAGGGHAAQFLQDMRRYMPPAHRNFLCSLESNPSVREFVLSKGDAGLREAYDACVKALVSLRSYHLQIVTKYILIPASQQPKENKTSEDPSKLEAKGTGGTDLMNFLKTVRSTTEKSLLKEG

IC50 (IDO1 [1]): 16 nM
Area under the curve [2]: 73460.2 ng·h/mL
Time to maximum plasma concentration [2]: 4 h
Maximum plasma concentration [2]: 4476.3 ng/mL
Compound: C[C@H](C[C@H]1CC[C@H](c2ccnc3ccc(F)cc32)CC1)Nc1cc(=O)oc2cc(Br)ccc12 [Example 5, 7-bromo-4-(((R)-1-((trans)-4-(6-fluoroquinolin-4-yl)cyclohexyl)propan-2-yl)amino)-2H-chromen-2-one]

IC50 (IDO1 [1]): 8.8 nM
Area under the curve [2]: 108441.1 ng·h/mL
Time to maximum plasma concentration [2]: 1 h
Maximum plasma concentration [2]: 18050.3 ng/mL
Compound: C[C@H](C[C@H]1CC[C@@H](c2ccnc3ccc(F)cc32)CC1)Nc1ncnc2cc(Br)ccc12 [Example 2, 7-bromo-N-((R)-1-((cis)-4-(6-fluoroquinolin-4-yl)cyclohexyl)propan-2-yl)quinazolin-4-amine]

IC50 (IDO1 [1]): 7.5 nM
IC50 (IDO1 [3]): 4 nM
Compound: C[C@H](C[C@H]1CC[C@@H](c2ccnc3ccc(F)cc32)CC1)Nc1nc2cccc(Cl)c2s1 [Example 18, 7-chloro-N-((R)-1-((cis)-4-(6-fluoroquinolin-4-yl)cyclohexyl)propan-2-yl)benzo[d]thiazol-2-amine]

IC50 (IDO1 [1]): 30 nM
IC50 (IDO1 [3]): 32.6 nM
Compound: C[C@H](C[C@H]1CC[C@@H](c2ccnc3ccc(F)cc32)CC1)Nc1nc2ccc(Cl)cc2s1 [Example 13, 6-chloro-N-((R)-1-((cis)-4-(6-fluoroquinolin-4-yl)cyclohexyl)propan-2-yl)benzo[d]thiazol-2-amine]

IC50 (IDO1 [1]): 18.7 nM
IC50 (IDO1 [3]): 18.3 nM
Compound: C[C@H](C[C@H]1CC[C@@H](c2ccnc3ccc(F)cc32)CC1)Nc1c(F)c(=O)oc2cc(Br)ccc12 [Example 11, 7-bromo-3-fluoro-4-(((R)-1-((cis)-4-(6-fluoroquinolin-4-yl)cyclohexyl)propan-2-yl)amino)-2H-chromen-2-one]

IC50 (IDO1 [1]): 7.2 nM
IC50 (IDO1 [3]): 11.2 nM
Compound: C[C@H](C[C@H]1CC[C@H](c2ccnc3ccc(F)cc32)CC1)Nc1c(F)c(=O)oc2cc(Br)ccc12 [Example 12, 7-bromo-3-fluoro-4-(((R)-1-((trans)-4-(6-fluoroquinolin-4-yl)cyclohexyl)propan-2-yl)amino)-2H-chromen-2-one]

Second part, the compound before the results:

Compound: COc1ccc2nc(N[C@H](C)C[C@H]3CC[C@@H](c4ccnc5ccc(F)cc54)CC3)sc2n1 [Example 22, N-((R)-1-((cis)-4-(6-fluoroquinolin-4-yl)cyclohexyl)propan-2-yl)-5-methoxythiazolo[5,4-b]pyridin-2-amine]
IC50 (IDO1 [1]): 16 nM
IC50 (IDO1 [3]): 10.9 nM

Compound: C[C@H](C[C@H]1CC[C@@H](c2ccnc3ccc(F)cc32)CC1)Nc1nc2ccc(F)cc2o1 [Example 29, 6-fluoro-N-((R)-1-((cis)-4-(6-fluoroquinolin-4-yl)cyclohexyl)propan-2-yl)benzo[d]oxazol-2-amine]
IC50 (IDO1 [1]): 10 nM
IC50 (IDO1 [3]): 9.9 nM

Compound: C[C@@H](C(=O)Nc1ccc(Cl)cc1)C1CCC(c2ccnc3ccc(F)cc23)CC1 (stereo partly shown) [BMS-986205, reference compound]
Area under the curve [2]: 3976.7 ng·h/mL
Time to maximum plasma concentration [2]: 1 h
Maximum plasma concentration [2]: 656.8 ng/mL

Compound: CC[C@H](C[C@H]1CC[C@@H](c2ccnc3ccc(F)cc32)CC1)Nc1nc2ccc(Cl)cc2o1 [Example 27, 6-chloro-N-((R)-1-((cis)-4-(6-fluoroquinolin-4-yl)cyclohexyl)butan-2-yl)benzo[d]oxazol-2-amine]
IC50 (IDO1 [1]): 23 nM
IC50 (IDO1 [3]): 7.4 nM

Compound: CCOc1ccc2nc(N[C@H](C)C[C@H]3CC[C@@H](c4ccnc5ccc(F)cc54)CC3)sc2c1 [Example 19, 6-ethoxy-N-((R)-1-((cis)-4-(6-fluoroquinolin-4-yl)cyclohexyl)propan-2-yl)benzo[d]thiazol-2-amine]
IC50 (IDO1 [1]): 14 nM
IC50 (IDO1 [3]): 8 nM

Compound: C[C@H](C[C@H]1CC[C@@H](c2ccnc3ccc(F)cc32)CC1)Nc1nc2ncc(Cl)cc2o1 [Example 31, 6-chloro-N-((R)-1-((cis)-4-(6-fluoroquinolin-4-yl)cyclohexyl)propan-2-yl)oxazolo[4,5-b]pyridin-2-amine]
IC50 (IDO1 [1]): 17.5 nM
IC50 (IDO1 [3]): 9.1 nM

Compound: C[C@H](C[C@H]1CC[C@@H](c2ccnc3ccc(F)cc32)CC1)Nc1nc2ncccc2o1 [Example 32, N-((R)-1-((cis)-4-(6-fluoroquinolin-4-yl)cyclohexyl)propan-2-yl)oxazolo[4,5-b]pyridin-2-amine]
IC50 (IDO1 [1]): 11.4 nM
IC50 (IDO1 [3]): 8.7 nM

Compound: C[C@H](C[C@H]1CC[C@@H](c2ccnc3ccc(F)cc32)CC1)Nc1nc2c(F)cccc2o1 [Example 28, 4-fluoro-N-((R)-1-((cis)-4-(6-fluoroquinolin-4-yl)cyclohexyl)propan-2-yl)benzo[d]oxazol-2-amine]
IC50 (IDO1 [1]): 12 nM
IC50 (IDO1 [3]): 8.6 nM

Compound: C[C@H](C[C@H]1CC[C@@H](c2ccnc3ccc(F)cc32)CC1)Nc1nc2c(F)cc(F)cc2s1 [Example 17, 4,6-difluoro-N-((R)-1-((cis)-4-(6-fluoroquinolin-4-yl)cyclohexyl)propan-2-yl)benzo[d]thiazol-2-amine]
IC50 (IDO1 [1]): 19 nM
IC50 (IDO1 [3]): 20.6 nM

Compound: C[C@H](C[C@H]1CC[C@H](c2ccnc3ccc(F)cc32)CC1)Nc1c(F)c(=O)oc2cc(Cl)ccc12 [Example 10, 7-chloro-3-fluoro-4-(((R)-1-((trans)-4-(6-fluoroquinolin-4-yl)cyclohexyl)propan-2-yl)amino)-2H-chromen-2-one]
IC50 (IDO1 [1]): 10.2 nM
IC50 (IDO1 [3]): 9.5 nM

Compound: COc1ccc2nc(N[C@H](C)C[C@H]3CC[C@@H](c4ccnc5ccc(F)cc54)CC3)oc2c1 [Example 26, N-((R)-1-((cis)-4-(6-fluoroquinolin-4-yl)cyclohexyl)propan-2-yl)-6-methoxybenzo[d]oxazol-2-amine]
IC50 (IDO1 [1]): 15 nM
IC50 (IDO1 [3]): 6.5 nM

Compound: C[C@H](C[C@H]1CC[C@@H](c2ccnc3ccc(F)cc32)CC1)Nc1nc2cccnc2o1 [Example 30, N-((R)-1-((cis)-4-(6-fluoroquinolin-4-yl)cyclohexyl)propan-2-yl)oxazolo[5,4-b]pyridin-2-amine]
IC50 (IDO1 [1]): 23.5 nM
IC50 (IDO1 [3]): 19.1 nM

Compound: C[C@H](C[C@H]1CC[C@@H](c2ccnc3ccc(F)cc32)CC1)Nc1nc2ncc(Cl)cc2s1 [Example 23, 6-chloro-N-((R)-1-((cis)-4-(6-fluoroquinolin-4-yl)cyclohexyl)propan-2-yl)thiazolo[4,5-b]pyridin-2-amine]
IC50 (IDO1 [1]): 27 nM
IC50 (IDO1 [3]): 7.6 nM
